# From patent US20260240817A1, “COMPOSITIONS AND METHODS FOR TREATING CHARCOT-MARIE-TOOTH DISEASE” (priority 2023, published 2026)
# “Also recorded” adds a separate entry of the source.
# Assays:
# [1] = tested on: WT mice; assay: In situ force and CMAP of triceps surae on sciatic nerve stimulation, wild type; assay type: in vivo, mouse
# Description: (§1) Mice were removed from their housing on the day of experiment and sedated with isoflurane (2-3%) dissolved in oxygen (supplied in a mask placed around the mouth and nose (Microvent 1, Hallowell EMC)) and placed on a heated mat. Sedation was ensured by testing the reflexes of the front limbs by tweezing them with a set of tweezers. Temperature was monitored by rectal probe. When fully sedated the Achilles tendon was blotted, tied by cotton string to a force transducer (Grass instruments) and cut distal to the cotton string, to allow recording of force from muscle of the lower limb. To record compound muscle action potentials (CMAP), two small needle electrodes were placed subcutaneously, one over the belly of the triceps surae muscle, and one at the distal part close to the tendon. To allow stimulation of the sciatic nerve, two stimulation needle electrodes were inserted at the base of the tail, one on each side of the sciatic nerve. Optimal placement was tested by applying short pulses via the stimulation electrodes, and assessing the resulting force and CMAP. When a stable response was obtained, electrodes were secured with tape, and the animal was allowed to rest for 10 minutes.
# (§2) After optimal set-up and rest, the following stimulation paradigm was initiated: Every 30 seconds the sciatic nerve was stimulated at 8-12 Volt by pulses of 0.1 ms duration at 12 Hz with 10 pulses (12 Hz protocol). This was repeated 9 times after which a single stimulation at 120 Hz for 1 s was made. The 12 Hz protocol was then again repeated 9 times followed a stimulation at 30 Hz for 1 s. This cycle was repeated throughout the experiments providing recordings of force and CMAP at 120 Hz and 30 Hz every 10th minute interspaced by 12 Hz protocols every 30 second. When 3 consecutive measurements of 120 Hz were similar, NMD670 was administered I.V. (8 mg/kg dissolved in phosphate buffered saline at 2 mg/mL), while the stimulation paradigm continued. Animals were monitored for 6 hours after injection of NMD670. Force and CMAP were measured and digitalized by an AD converter (CED, UK,) and analysed in “Signal 6” (Cambridge Electronic Designs, UK). When analysing force traces, the peak amplitude of each twitch peak at 12 and 30 Hz was measured, and the baseline subtracted. The force at 30 and 120 Hz was also quantified as a force-time integral, or area under the curve (AUC). The CMAP recordings were quantified as the peak-to-peak levels for each CMAP in every train. The peak heights or CMAP levels were then expressed as ratios relative to the first CMAP peak in the train e.g. forth peak relative to 1st peak (T4/T1) and 10th peak relative to 1st peak (T10/T1).
# [2] = tested on: CMT2D Gars^P278KY mice; assay: In situ force and CMAP of triceps surae on sciatic nerve stimulation, CMT2D model; assay type: in vivo, mouse
# Description: CMT2D Gars^P278KY mice (Jackson laboratories, stock 17540) were used (Spauling et al. 2016). All handling and use of animals complied with Danish Animal Welfare regulations (licence 2017-15-0201-01223). Animals were fed ad libitum, kept at 12 h light/dark condition at 21° C. and observed daily.
# as §1
# The single fibre measurements of EPP was performed in animals aged 8 to 15 weeks, whilst the in situ stimulation protocol part was performed in animals 37 weeks of age, from the same litter.
# as §2
# [3] = Wild Type, after NMD670 (before 100)
# [4] = Gars^P278KY mice, after injection of NMD670
# [5] = Gars^P278KY mice, after injection of NMD670, not fully normalized
# [6] = Gars^P278KY, after 8 mg/kg i.v. (before 100)
structure (smiles),measurement,setting,value
"C[C@H](Oc1ccc(Br)cc1-c1ccon1)C(=O)O [NMD670, (2S)-2-[4-bromo-2-(1,2-oxazol-3-yl)phenoxy]propanoic acid]",increase of ratio of the 5th and 1st CMAP peaks,"[1]; WT mice after injection of NMD670, 30 and 80 Hz stimulations as printed",not significantly different
same,Twitch force relative to BW,"[1]; Wild Type, after NMD670 (before 1.08 ± 0.01)",1.06 ± 0.02
same,Twitch force,"[1]; Wild Type, after NMD670 (before 21.6 ± 1.3)",22.2 ± 2.3 g
same,Force 12 Hz Ratios T4/T1,"[1]; Wild Type, after NMD670 (before 96.6 ± 1.3)",97.7 ± 06%
same,Force 12 Hz Ratios T10/T1,"[1]; Wild Type, after NMD670 (before 97.3 ± 0.6)",99.2 ± 0.3%
same,Force 30 Hz AUC (% of initial),[1]; [3],102.9 ± 1.9 % of initial
same,Force 120 Hz AUC (% of initial),[1]; [3],100.7 ± 2.7 % of initial
same,12 Hz Ratios CMAP T4/T1,"[1]; Wild Type, after NMD670 (before 102.2 ± 0.9)",103.1 ± 0.2
same,12 Hz Ratios CMAP T10/T1,"[1]; Wild Type, after NMD670 (before 102.8 ± 0.1)",102.8 ± 2.2
same,EMG (CMAP) 30 Hz 5/1,"[1]; Wild Type, after NMD670 (before 105.8 ± 3.1)",119.0 ± 11.6
same,EMG (CMAP) 120 Hz 5/1,"[1]; Wild Type, after NMD670 (before 110.2 ± 6.5)",123.5 ± 20.6
same,"force, CMAP and relative force peaks (T4 or T10/T1)","[2]; Gars^P278KY mice, after 8 mg/kg NMD670 i.v., 12, 30, 120 Hz stimulation",less decrease in amplitudes; also recorded: improved; also recorded: increase
same,T4/T1 and T10/T1 ratios of twitch force,[2]; [4],normalization
same,increase in absolute twitch force,[2]; [4],25%
same,increase of force during 30 Hz stimulation,[2]; [5],21%
same,increase of force during 120 Hz stimulation,[2]; [5],30%
same,Twitch force,"[2]; Gars^P278KY, after 8 mg/kg NMD670 i.v. (before 6.06 ± 0.8)",7.5 ± 1.1 g
same,Twitch force relative to BW,"[2]; Gars^P278KY, after 8 mg/kg i.v. (before 0.42 ± 0.05)",0.51 ± 0.05
same,12 Hz Ratios CMAP T10/T1,"[2]; Gars^P278KY, after 8 mg/kg i.v. (before 63.5 ± 4.91)",76.1 ± 4.37
same,12 Hz Ratios CMAP T4/T1,"[2]; Gars^P278KY, after 8 mg/kg i.v. (before 75.5 ± 2.8)",86.3 ± 2.44
same,Force 12 Hz Ratios T10/T1,"[2]; Gars^P278KY, after 8 mg/kg i.v. (before 82.0 ± 6.0)",93.8 ± 5.7%
same,EMG (CMAP) 30 Hz 5/1,"[2]; Gars^P278KY, after 8 mg/kg i.v. (before 82.4 ± 3.3)",95.3 ± 2.4
same,EMG (CMAP) 120 Hz 5/1,"[2]; Gars^P278KY, after 8 mg/kg i.v. (before 83.8 ± 13.9)",102.0 ± 4.3
same,Force 12 Hz Ratios T4/T1,"[2]; Gars^P278KY, after 8 mg/kg i.v. (before 88.2 ± 5.1)",97.8 ± 5.0%
same,Force 30 Hz AUC (% of initial),[2]; [6],124.1 ± 3.7 % of initial
same,Force 120 Hz AUC (% of initial),[2]; [6],136.7 ± 29.9 % of initial
